Among the data in ChEMBL document CHEMBL5352406 (Eur J Med Chem, 2022) are GI50, IC50 and Selectivity Index values, retold here.

One assay relates to HCT-116. Nature of the assay: Antiproliferative activity against human HCT-116 cells assessed as cell growth inhibition after 72 hrs by MTT assay. Format: functional.
The next assay concerns the target Cholinesterase (Equus caballus, UniProt P81908). Nature of the assay: Inhibition of equine serum BuChE using […] as substrate for 20 mins by Ellman's method.
Another assay addresses CDK9/cyclin T1 (Homo sapiens, UniProt P50750).
A short description of assay [1]: Selectivity index, ratio of IC50 for equine serum BuChE to IC50 for CDK9/CyclinT1 (unknown origin).
Assay [2] is described as follows: Selectivity index, ratio of IC50 for electric eel AChE to IC50 for CDK9/CyclinT1 (unknown origin).
For the next assay, the system named is A549. Nature of the assay: Antiproliferative activity against human A549 cells assessed as cell growth inhibition after 72 hrs by MTT assay. Type of assay: functional.
For the next assay, the target named is CDK2/Cyclin A2 (Homo sapiens, UniProt P24941). Type of assay: protein-complex assay.
In a further assay the test system is MCF7. Nature of the assay: Antiproliferative activity against human MCF7 cells assessed as cell growth inhibition after 72 hrs by MTT assay. Type of assay: functional. A general note: Tetrazolium assays rely on reduction of a dye to a coloured formazan, in cell work by metabolically active cells.
Assay [3] is described as follows: Selectivity index, ratio of IC50 for human full length CDK2/CyclinA to IC50 for CDK9/CyclinT1 (unknown origin).
The next assay relates to SW480. Kind of assay: Antiproliferative activity against human SW480 cells assessed as cell growth inhibition after 72 hrs by MTT assay. Format: functional.
The next assay concerns the target Acetylcholinesterase (Electrophorus electricus, UniProt O42275). Kind of assay: Inhibition of electric eel AChE using acetylthiocholine […] as substrate for 20 mins by Ellman's method. For orientation: DTNB colorimetry detects thiols as they appear.

Chain of Acetylcholinesterase (O42275 whole entry): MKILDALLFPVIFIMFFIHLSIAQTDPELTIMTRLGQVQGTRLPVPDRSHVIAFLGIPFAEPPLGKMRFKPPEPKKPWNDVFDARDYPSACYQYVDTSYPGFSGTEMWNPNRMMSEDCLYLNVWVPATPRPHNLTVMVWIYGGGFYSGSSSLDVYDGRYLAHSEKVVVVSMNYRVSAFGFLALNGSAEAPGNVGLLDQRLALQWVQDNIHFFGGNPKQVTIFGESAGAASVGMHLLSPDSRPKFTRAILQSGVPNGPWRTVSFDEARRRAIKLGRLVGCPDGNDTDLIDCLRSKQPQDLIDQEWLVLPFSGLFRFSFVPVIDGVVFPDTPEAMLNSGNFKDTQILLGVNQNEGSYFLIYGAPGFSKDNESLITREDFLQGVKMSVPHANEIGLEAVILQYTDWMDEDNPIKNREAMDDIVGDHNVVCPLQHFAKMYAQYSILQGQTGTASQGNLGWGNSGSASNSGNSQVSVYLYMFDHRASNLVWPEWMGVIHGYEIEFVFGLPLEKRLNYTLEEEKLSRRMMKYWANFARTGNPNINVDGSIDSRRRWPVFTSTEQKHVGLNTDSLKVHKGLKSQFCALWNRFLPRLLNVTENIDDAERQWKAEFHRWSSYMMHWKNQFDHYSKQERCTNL
Chain of CDK9/cyclin T1 (O60563 whole entry): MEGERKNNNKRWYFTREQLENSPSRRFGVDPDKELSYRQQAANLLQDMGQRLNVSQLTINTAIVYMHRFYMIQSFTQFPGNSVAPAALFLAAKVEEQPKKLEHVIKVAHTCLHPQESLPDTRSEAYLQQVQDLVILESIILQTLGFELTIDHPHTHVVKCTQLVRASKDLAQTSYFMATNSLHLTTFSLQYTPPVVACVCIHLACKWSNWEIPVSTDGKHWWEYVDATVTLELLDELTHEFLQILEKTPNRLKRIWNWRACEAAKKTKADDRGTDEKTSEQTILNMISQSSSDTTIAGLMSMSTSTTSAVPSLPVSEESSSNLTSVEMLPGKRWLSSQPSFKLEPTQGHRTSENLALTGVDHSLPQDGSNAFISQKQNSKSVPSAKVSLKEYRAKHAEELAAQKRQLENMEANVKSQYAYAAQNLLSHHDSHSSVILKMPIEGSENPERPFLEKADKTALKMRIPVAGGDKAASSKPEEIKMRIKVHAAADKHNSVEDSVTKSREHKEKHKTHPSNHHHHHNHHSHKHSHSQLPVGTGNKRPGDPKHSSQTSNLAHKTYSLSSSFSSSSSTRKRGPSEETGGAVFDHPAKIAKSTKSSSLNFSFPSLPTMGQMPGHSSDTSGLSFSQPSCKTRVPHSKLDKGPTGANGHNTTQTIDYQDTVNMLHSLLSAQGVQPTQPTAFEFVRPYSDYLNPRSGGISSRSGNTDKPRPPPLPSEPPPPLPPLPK
Chain of CDK9/cyclin T1 (P50750 whole entry): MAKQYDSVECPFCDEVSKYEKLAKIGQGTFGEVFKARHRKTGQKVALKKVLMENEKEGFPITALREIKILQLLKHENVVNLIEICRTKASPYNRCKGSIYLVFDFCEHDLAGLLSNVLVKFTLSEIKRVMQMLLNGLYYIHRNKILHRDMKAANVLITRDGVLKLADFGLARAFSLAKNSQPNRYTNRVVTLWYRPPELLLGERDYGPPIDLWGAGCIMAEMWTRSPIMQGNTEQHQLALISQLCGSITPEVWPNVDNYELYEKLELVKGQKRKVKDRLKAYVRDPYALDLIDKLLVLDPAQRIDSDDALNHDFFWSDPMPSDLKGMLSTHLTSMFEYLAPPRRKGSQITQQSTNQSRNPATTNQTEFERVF
Chain of Cholinesterase (P81908 whole entry): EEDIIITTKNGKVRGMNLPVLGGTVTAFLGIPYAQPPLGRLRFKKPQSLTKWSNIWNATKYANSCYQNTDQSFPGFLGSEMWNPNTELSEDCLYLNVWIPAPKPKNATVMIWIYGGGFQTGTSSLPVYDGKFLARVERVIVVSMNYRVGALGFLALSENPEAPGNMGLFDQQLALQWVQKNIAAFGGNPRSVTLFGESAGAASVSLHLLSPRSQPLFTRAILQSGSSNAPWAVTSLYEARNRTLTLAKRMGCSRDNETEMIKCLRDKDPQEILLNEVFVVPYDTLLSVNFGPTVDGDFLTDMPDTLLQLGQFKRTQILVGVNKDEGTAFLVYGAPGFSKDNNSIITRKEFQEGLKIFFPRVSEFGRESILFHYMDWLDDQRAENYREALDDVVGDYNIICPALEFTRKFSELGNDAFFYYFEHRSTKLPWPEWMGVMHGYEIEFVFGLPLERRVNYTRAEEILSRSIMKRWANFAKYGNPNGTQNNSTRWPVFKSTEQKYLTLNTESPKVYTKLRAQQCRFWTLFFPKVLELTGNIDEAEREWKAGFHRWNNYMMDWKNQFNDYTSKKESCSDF
Description for CDK2/Cyclin A2: Inhibition of human full length CDK2/CyclinA2 by ADP-Glo kinase assay
Description for CDK9/cyclin T1: Inhibition of CDK9/CyclinT1 (unknown origin) by ADP-Glo kinase assay

In the case of `N[C@H]1CCN(c2c3c(nc4ccc(-c5ccnc(NC(=O)C6CC6)n5)cc24)CCCCCC3)C1`, the GI50 (commonly the concentration that inhibits growth by half) stood at 14 nM with HCT-116, 64 nM with A549, 71 nM with MCF7 and 18 nM in the assay on SW480. In addition, the IC50 (usually the point on the concentration scale where inhibition reaches its midpoint) against Cholinesterase came to 2730 nM; at CDK9/cyclin T1, 2.88 nM; at CDK2/Cyclin A2, 18.7 nM; on Acetylcholinesterase, 20.7 µM. Moreover, the Selectivity Index in [1] came to 948; in [2], 7200; in assay [3], 7.

With `N[C@H]1CCN(c2c3c(nc4ccc(-c5ccnc(NC(=O)C6CC6)c5)cc24)CCCCCC3)C1`, the GI50 in the assay with HCT-116 worked out at 14 nM; with A549 it was 52 nM; in the assay on MCF7 it was 65 nM; in the assay on SW480, 34 nM. In addition, the Selectivity Index in assay [2] amounted to 9210; in [3], 2. In addition, the half-maximal inhibitory concentration (IC50) against CDK2/Cyclin A2 was found to be 2.92 nM; against Acetylcholinesterase it was 17.2 µM.

In the case of `N[C@H]1CCN(c2c3c(nc4ccc(-c5ccnc(NC(=O)C6CCC6)c5)cc24)CCCCCC3)C1`, the GI50 in the assay with HCT-116 is 46 nM; in the assay with A549 it was 109 nM; in the assay with MCF7, 108 nM; with SW480, 118 nM. The IC50 on Cholinesterase amounted to 698 nM; against CDK9/cyclin T1, 2.97 nM; against CDK2/Cyclin A2 it was 7.74 nM; on Acetylcholinesterase, 26.5 µM. The results for the Selectivity Index in [1], in [2] and in assay [3] were 235, 8920 and 3, respectively.

Consider `N[C@H]1CCN(c2c3c(nc4ccc(-c5cccnc5)cc24)CCCCC3)C1`, for which the GI50 in the assay with HCT-116 is more than 10000 nM; with A549, more than 10000 nM; in the assay with MCF7, more than 10000 nM; with SW480, more than 3000 nM. Besides, the IC50 on Cholinesterase is 722 nM; against CDK9/cyclin T1, more than 500 nM; against CDK2/Cyclin A2 it was more than 500 nM; at Acetylcholinesterase, 13.7 µM.

Turning to `N[C@H]1CCN(c2c3c(nc4ccc(-c5ccnc(NC(=O)C6CC6)c5)cc24)CCCCC3)C1`, the GI50 was 18 nM with HCT-116, 28 nM in the assay on A549, 76 nM with MCF7 and 33 nM with SW480. Moreover, the half-inhibitory concentration (IC50) against Cholinesterase is 1960 nM; against CDK9/cyclin T1, 2.19 nM; against CDK2/Cyclin A2 it was 5.51 nM; against Acetylcholinesterase, 31.1 µM. Moreover, the figures for the Selectivity Index in assay [1], in [2] and in assay [3] were 894, 14200 and 3, respectively.

In the case of `N[C@H]1CCN(c2c3c(nc4ccc(-c5ccnc(NC(=O)C6CCCCC6)c5)cc24)CCCCC3)C1`, the GI50 in the assay on HCT-116 was 262 nM; in the assay on A549 it was 308 nM; in the assay with MCF7 it was 404 nM; in the assay with SW480 it was 1260 nM. Moreover, the IC50 was determined as 1660 nM against Cholinesterase, 2.18 nM at CDK9/cyclin T1, 59.5 nM on CDK2/Cyclin A2 and 20.8 µM at Acetylcholinesterase. The Selectivity Index turned out to be 763 in [1], 9550 in [2] and 27 in assay [3].

Turning to `CN(C)S(=O)(=O)c1ccc(Nc2cc(-c3ccc4nc5c(c(N6CC[C@H](N)C6)c4c3)CCCCC5)ccn2)cc1`, the GI50 with HCT-116 was found to be 2180 nM; in the assay on A549, 1990 nM; in the assay on MCF7, 3110 nM; with SW480, 1810 nM. In addition, the IC50 against Cholinesterase is 1060 nM; against CDK9/cyclin T1 it was 102 nM; against CDK2/Cyclin A2, more than 500 nM; against Acetylcholinesterase it was 35.2 µM. Also, the results for the Selectivity Index in assay [1], in assay [2] and in assay [3] were 10, 346 and 0.5, respectively.

Turning to `N[C@H]1CCN(c2c3c(nc4ccc(-c5cc(NC(=O)C6CC6)ncn5)cc24)CCCCC3)C1`, the GI50 in the assay with HCT-116 came to 201 nM; with A549, 166 nM; with MCF7, 161 nM; in the assay with SW480, 316 nM. Further, the IC50 on Cholinesterase turned out to be 3850 nM; on CDK9/cyclin T1, 5.75 nM; on CDK2/Cyclin A2 it was 14.7 nM; against Acetylcholinesterase, 7.2 µM. Further, the Selectivity Index in [1] is 669; in assay [2], 1250; in assay [3], 3.

`N[C@H]1CCN(c2c3c(nc4ccc(-c5ccnc(C(=O)NC6CC6)c5)cc24)CCCCC3)C1`: the GI50 in the assay on HCT-116 was 4740 nM; with A549, more than 10000 nM; with MCF7 it was 10400 nM; in the assay with SW480, 9120 nM. Further, the IC50 is 4990 nM against Cholinesterase, more than 500 nM at CDK9/cyclin T1, more than 500 nM against CDK2/Cyclin A2 and 5.57 µM against Acetylcholinesterase.

In the case of `N[C@H]1CCN(c2c3c(nc4ccc(-c5ccnc(NC(=O)C6CCCC6)c5)cc24)CCCCC3)C1`, the GI50 is 134 nM with HCT-116, 83 nM in the assay on A549, 210 nM in the assay with MCF7 and 65 nM in the assay on SW480. Besides, the IC50 against Cholinesterase worked out at 1180 nM; at CDK9/cyclin T1, 2.77 nM; against CDK2/Cyclin A2, 17.6 nM; at Acetylcholinesterase it was 17.1 µM. Besides, the Selectivity Index in assay [1] came out at 425; in [2], 6180; in [3], 6.

On to `N[C@@H]1CCN(c2c3c(nc4ccc(-c5ccnc(NC(=O)C6CC6)c5)cc24)CCCCC3)C1`, for which the concentration for 50% growth inhibition (GI50) worked out at 39 nM in the assay with HCT-116, 41 nM in the assay with A549, 80 nM in the assay on MCF7 and 49 nM with SW480. The figures for the half-inhibitory concentration (IC50) against Cholinesterase and against CDK2/Cyclin A2 were 4780 nM and 6.46 nM, respectively. The values for the Selectivity Index in assay [1] and in assay [3] were 2560 and 3, respectively.

For `N[C@H]1CCN(c2c3c(nc4ccc(-c5ccnc(NC(=O)C6CC6)c5)cc24)-c2ccccc2CCC3)C1`, the GI50 in the assay on HCT-116 turned out to be 2670 nM; in the assay on A549, 1900 nM; with MCF7 it was 2220 nM; in the assay on SW480, 3050 nM. For the same compound, the IC50 against Cholinesterase was 3340 nM; at CDK9/cyclin T1 it was 111 nM; against CDK2/Cyclin A2, more than 500 nM; at Acetylcholinesterase it was more than 50 µM. Also, the Selectivity Index in assay [1] was found to be 28.

On to `N[C@H]1CCN(c2c3c(nc4ccc(-c5nccc(NC(=O)C6CC6)n5)cc24)CCCCC3)C1`, for which the GI50 in the assay on HCT-116 was more than 3000 nM; in the assay on A549 it was more than 10000 nM; in the assay on MCF7, 8390 nM; in the assay on SW480 it was more than 3000 nM. Besides, the IC50 at Cholinesterase is 2510 nM; on CDK9/cyclin T1, more than 500 nM; at CDK2/Cyclin A2, more than 500 nM; at Acetylcholinesterase, 17.6 µM.

With `N[C@H]1CCN(c2c3c(nc4ccc(-c5ccccc5)cc24)CCCCC3)C1`, the GI50 in the assay with HCT-116 was 5880 nM; in the assay with A549, 9530 nM; in the assay on MCF7, 4060 nM; with SW480 it was 2930 nM. For the same compound, the IC50 was 133 nM on Cholinesterase, more than 500 nM against CDK9/cyclin T1, more than 500 nM at CDK2/Cyclin A2 and 19.1 µM at Acetylcholinesterase.

`N[C@H]1CCN(c2c3c(nc4ccc(-c5ccnc(NC(=O)C6CC6)c5)cc24)CCCC3)C1`: the concentration for 50% growth inhibition (GI50) in the assay with HCT-116 stood at 29 nM; in the assay on MCF7 it was 109 nM; in the assay on SW480, 328 nM. The compound also gave an IC50 at CDK9/cyclin T1 of 2.23 nM.

Consider `N[C@H]1CCN(c2c3c(nc4ccc(-c5ccncc5)cc24)CCCCC3)C1`, for which the GI50 in the assay with HCT-116 turned out to be 272 nM; in the assay with A549 it was 393 nM; in the assay on MCF7 it was 424 nM; with SW480 it was 458 nM. The IC50 at Cholinesterase is 422 nM; at CDK9/cyclin T1, 8.35 nM; on CDK2/Cyclin A2 it was more than 500 nM; against Acetylcholinesterase, 24.8 µM. In addition, the results for the Selectivity Index in [1] and in assay [2] were 51 and 2970, respectively.
